Values quoted from earlier work, collected in patent publication EP0433909A2, “Formulation” (CIBA-GEIGY AG, priority 1989, dated 1991).

Settings: for solubilities: in water, K. Wellinga et al., J. Agr. Food Chem. Vol 21, No.3 (1973), p.350

Compound | solubilities [ppm] | solubility in water (The Merck Index, 9th Ed. (1976), p. 416)
O=C(NC(=O)c1c(Cl)cccc1Cl)Nc1ccc(Cl)c(Cl)c1 [1-(2,6-dichlorobenzoyl)-3-(3,4-dichlorophenyl)-urea] | ≤ 1 | 
O=C(NC(=O)c1c(Cl)cccc1Cl)Nc1ccc(Cl)cc1 [1-(4-chlorophenyl)-3-(2,6-dichlorobenzoyl)-urea] | ≤ 1 | 
O=C(NC(=O)c1c(F)cccc1F)Nc1ccc(Cl)cc1 [1-(4-chlorophenyl)-3-(2,6-difluorobenzoyl)urea] |  | about 0.3 ppm
